Data published in patent US11207319B2, “Method for the treatment of bladder cancer” (Cipla Limited, priority 2015, dated 2021).
Like-named read-outs stand apart in the source and are kept apart here.

Columns and labels:
[1] = tested on: HT1376; experiment: In vitro anticancer activity, bladder carcinoma efficacy models (cytotoxicity/clonogenic); format: cell-based, human; settings: HT1376, varied concentrations
Experimental: (§1) Human bladder cancer cell lines HTB-5, HT-1376 and T-24 were purchased from American Type Culture Collection, USA. Cell lines HTB-5 and HT1376 were routinely cultured in Eagle's Minimum Essential Medium with 10% fetal bovine serum and T-24 in McCoy's 5A medium with 10% fetal bovine serum. All cell lines were maintained at 37° C. in a humidified atmosphere containing 5% CO2.
(§2) In vitro cytotoxicity assay: Cells were plated in 96-well cell culture plates (4×10^3 cells/well) and were treated with drugs at various concentrations. Treated cells were maintained at 37° C. in 5% CO2 for 48 and 72 hrs. After the incubation antiproliferative activity of test compounds was measured using ProMega Cell Titer aqueous one solution cell proliferation assay kit, viz. CellTiter 96® AQueous One Solution Reagent. Cells were incubated for 1-4 hours at 37° C., 5% CO2 incubator and absorbance was measured at 490 nm using a plate reader. IC50 values were determined by plotting compound concentration versus cell viability.
(§3) Clonogenic assay: bladder cancer cell lines viz HTB-5, HT-1376 and T-24 cells were plated at different densities i.e. 300 cells/well and 400 cells/well respectively in 3 ml volume per well into six-well plates and incubated overnight at 37° C. in a 5% CO2 incubator. […] Medium with drug was then replaced with medium without drug and plates were further incubated till visible colonies appeared (approximately for 12-14 days). Cells were then fixed with methanol:glacial acetic acid (2:1) and stained with 0.5% crystal violet. After staining for 2-3 min, plates were rinsed twice with D/W, dried and images were captured.

[2] = tested on: HTB-5; experiment: as above; format: cell-based, human; settings: HTB-5, varied concentrations
Experimental: as §1, §2, §3

[3] = tested on: T-24; experiment: as above; format: cell-based, human; settings: T-24, varied concentrations
Experimental: as §1, §2, §3

[4] = tested on: BXF 1036; experiment: In vitro 2D assay, CellTiter-Blue Cell Viability Assay; format: cell-based; settings: Homo sapiens, BXF 1036, 96 h, read-out: Absolute IC50 values
Experimental: (§4) The in-vitro anti-tumor activity of terconazole was assessed in five selected human bladder cancer cell lines. The test compounds were applied at 9 concentrations in half-log increments. As a reference compound cisplatin was tested in parallel. Cells were treated for 96 h with the test compounds. Anti-tumor activity was assessed by using the CellTiter-Blue® Cell Viability Assay. Potency is expressed as absolute IC50 and relative IC50 values, calculated by non-linear regression analysis.
(§5) Tumor Cell Lines: In the present study the human bladder cancer cell lines BXF 1036, BXF 1218, BXF 1352, 5637 and T24 were used. BXF 1036, BXF 1218 and BXF 1352 were established at Oncotest from the corresponding human patient derived xenograft. T24 was purchased from ATCC (Rockville, Md., USA) and 5637 was from DSMZ (Braunschweig, Germany). Authenticity of cell lines was confirmed at the DSMZ by STR (short tandem repeat) analysis, a PCR based DNA-fingerprinting methodology. Cell lines were routinely passaged once or twice weekly and maintained in culture for up to 20 passages. All cells were grown at 37° C. in a humidified atmosphere with 5% CO2 in RPMI 1640 medium (25 mM HEPES, with L-glutamine, #FG1385, Biochrom, Berlin, Germany) supplemented with 10% (v/v) fetal calf serum (Sigma, Taufkirchen, Germany) and 0.1 mg/mL gentamicin (Life Technologies, Karlsruhe, Germany).
(§6) Cell Proliferation Assay: The CellTiter-Blue® Cell Viability Assay (#G8081, Promega) was used according to manufacturer's instructions. Briefly, cells were harvested from exponential phase cultures, […] on the cell line's growth rate. After a 24 h recovery period to allow the cells to resume exponential growth, test compounds were added. Compounds were applied at 9 concentrations in half-log increments in duplicate and treatment continued for 96 h. After 96 h treatment of cells, 20 μL/well CellTiter-Blue® reagent was added.
(§7) Following an incubation period of up to four hours, fluorescence (FU) was measured by using the Enspire Multimode Plate Reader (excitation k=531 nm, emission k=615 nm). For calculations, the mean values of duplicate/sixfold (untreated control) data were used. Sigmoidal concentration-response curves were fitted to the data points (T/C values) obtained for each cell line using 4 parameter non-linear curve fit (Oncotest Warehouse Software).

[5] = tested on: BXF 1218; experiment: as above; format: cell-based; settings: Homo sapiens, BXF 1218, 96 h, read-out: Absolute IC50 values
Experimental: as §4, §5, §6, §7

[6] = tested on: BXF 1352; experiment: as above; format: cell-based; settings: Homo sapiens, BXF 1352, 96 h, read-out: Absolute IC50 values
Experimental: as §4, §5, §6, §7

[7] = tested on: BXF 5637; experiment: as above; format: cell-based; settings: Homo sapiens, BXF 5637, 96 h, read-out: Absolute IC50 values
Experimental: as §4, §5, §6, §7

[8] = tested on: BXF T24; experiment: as above; format: cell-based; settings: Homo sapiens, BXF T24, 96 h, read-out: Absolute IC50 values
Experimental: as §4, §5, §6, §7

[9] = tested on: five selected human bladder cancer cell lines; experiment: In vitro 2D assay, CellTiter-Blue Cell Viability Assay, mean over panel; format: cell-based; settings: 96 h, read-out: Geometric Mean Absolute IC50 values
Experimental: as §4
as §5, with “All cells were grown at 37° C. in a humidified atmosphere with 5% CO2 in RPMI 1640 medium (25 mM HEPES, with L-glutamine, #FG1385, Biochrom, Berlin, Germany) supplemented with 10% (v/v) fetal calf serum (Sigma, Taufkirchen, Germany) and 0.1 mg/mL gentamicin (Life Technologies, Karlsruhe, Germany).” left out
Following an incubation period of up to four hours, fluorescence (FU) was measured by using the Enspire Multimode Plate Reader (excitation k=531 nm, emission k=615 nm). […]

[10] = tested on: BXF 1036; experiment: In vitro 3D clonogenic assay (colony formation in semi-solid medium); format: cell-based; settings: Homo sapiens, read-out: Absolute IC50 values
Experimental: (§8) In the present study, terconazole and cisplatin were evaluated for their ability to inhibit anchorage independent growth and ex vivo colony formation of tumor cells in semi-solid medium. The compounds were tested against 5 human tumor cell lines of bladder cancer. Test concentrations ranged, from 0.0316 μM to 316.2 μM (terconazole), or from 0.00316 μM to 100 μM (cisplatin).
(§9) Terconazole and the reference compound cisplatin were investigated for anticancer activity ex vivo in five human tumor cell lines of bladder cancer. Tests were carried out using a 3D clonogenic assay in 96-well format with image based read-out. The aim of the study was to investigate antitumor potency and tumor type selectivity of the compound.
(§10) Clonogenic Assay Procedure: The clonogenic assay was carried out in a 96 well plate format using ultra low attachment plates. For each test, cells were prepared as described above and assay plates were prepared as follows: each test well contained a layer of semi-solid medium with tumor cells (50 and a second layer of medium supernatant with or without test compound (100 The cell layer consisted of 2·10^3 to 3·10^3 tumor cells per well, which were seeded in 50 μL/well cell culture medium (IMDM, supplemented with 20% (v/v) fetal calf serum, 0.01% (w/v) gentamicin, and 0.4% (w/v) agar. After 24 hours the test compounds were added after serial dilution in cell culture medium, and left on the cells for the duration of the experiment (continuous exposure, 100 μl drug overlay). Every plate included six untreated control wells and drug-treated groups in duplicate at 9 concentrations. Cultures were incubated at 37° C. and 7.5% CO2 in a humidified atmosphere for 8 to 13 days and monitored closely for colony growth using an inverted microscope. Within this period, ex vivo tumor growth led to the formation of colonies with a diameter of >50 μm. At the time of maximum colony formation, counts were performed with an automatic image analysis system (Bioreader 5000-Wa Biosys GmbH). 48 hours prior to evaluation, vital colonies were stained with a sterile aqueous solution of 2-(4-iodophenyl)-3-(4-nitrophenyl)-5-phenyltetrazolium chloride (1 mg/ml, 100 μl/well)

[11] = tested on: BXF 1218; experiment: as above; format: cell-based; settings: Homo sapiens, read-out: Absolute IC50 values
Experimental: as §8, §9, §10

[12] = tested on: BXF 1352; experiment: as above; format: cell-based; settings: Homo sapiens, read-out: Absolute IC50 values
Experimental: as §8, §9, §10

[13] = tested on: BXF 5637; experiment: as above; format: cell-based; settings: Homo sapiens, read-out: Absolute IC50 values
Experimental: as §8, §9, §10

[14] = tested on: BXF T24; experiment: as above; format: cell-based, human; settings: read-out: Absolute IC50 values
Experimental: as §8, §9
Clonogenic Assay Procedure: The clonogenic assay was carried out in a 96 well plate format using ultra low attachment plates. […] Cultures were incubated at 37° C. and 7.5% CO2 in a humidified atmosphere for 8 to 13 days and monitored closely for colony growth using an inverted microscope. […]

[15] = tested on: 5 human tumor cell lines of bladder cancer; experiment: In vitro 3D clonogenic assay, panel summary; format: cell-based; settings: for IC50: Homo sapiens
Experimental: as §8, §9, §10

[16] = tested on: BXF 1036L; experiment: In vitro combination study, 3D clonogenic assay, 5x5 matrix; format: cell-based; settings: Homo sapiens, monotherapy controls of 5x5 matrix, soft agar, read-out: IC50, colony formation, single agent
Experimental: (§11) Summary: Terconazole was tested alone and in combination with cisplatin in order to investigate the ability to inhibit tumor cell growth of bladder cancer cell lines in a 5×5 matrix combination format. Efficacy of the combinations was assessed by measuring anchorage-independent growth and in vitro tumor colony formation using a 3D clonogenic assay in cell lines BXF 1036L, BXF 1218L, and BXF T24.
(§12) The objective of this study was to assess anti-tumor efficacy of CIPDE033 and CIPDE034 in combination with cisplatin in a 5×5 matrix combination format against various bladder cancer cell lines. Efficacy of the combinations was assessed by measuring anchorage-independent growth and in vitro tumor colony formation using a 3D clonogenic assay in cell lines BXF 1036L, BXF 1218L, and BXF T24. […]
(§13) Cultivation of Cell Lines: Cell lines were routinely passaged once or twice weekly and maintained in culture for up to 20 passages. […] The percentage of viable cells was determined in a Neubauer-hemocytometer using trypan blue exclusion.
(§14) 3D Clonogenic Assay Procedure: The clonogenic assay was carried out in a 96 well plate format using ultra low attachment plates. […] Cultures were incubated at 37° C. and 7.5% CO2 in a humidified atmosphere for 8 to 13 days and monitored closely for colony growth using an inverted microscope. […]

[17] = tested on: BXF T24; experiment: as above; format: cell-based; settings: Homo sapiens; monotherapy controls of 5x5 matrix, BXF T24, soft agar; read-out: IC50, colony formation, single agent
Experimental: as §11, §12, §13, §14

[18] = target: T1, rat spleen HO-1 (Rattus norvegicus, UniProt P06762); settings: reported in literature; read-out: IC50, inhibition of rat spleen HO-1 activity; cited from earlier work
T1 construct: host or cells: rat spleen
T1 sequence (P06762 1-289): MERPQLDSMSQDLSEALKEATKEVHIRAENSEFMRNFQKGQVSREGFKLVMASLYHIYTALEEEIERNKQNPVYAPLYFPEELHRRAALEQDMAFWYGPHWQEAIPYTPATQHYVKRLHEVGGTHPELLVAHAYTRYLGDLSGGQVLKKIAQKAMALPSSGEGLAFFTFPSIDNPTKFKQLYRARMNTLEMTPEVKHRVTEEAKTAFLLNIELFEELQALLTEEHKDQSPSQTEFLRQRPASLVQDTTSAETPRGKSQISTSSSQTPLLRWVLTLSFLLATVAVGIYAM

CC(C)N1CCN(c2ccc(OC[C@@H]3CO[C@@](Cn4cncn4)(c4ccc(Cl)cc4Cl)O3)cc2)CC1 (racemic) [Terconazole]
anticancer activity in vitro [1]: significant anticancer activity | anticancer activity in vitro [2]: significant anticancer activity | anticancer activity in vitro [3]: significant anticancer activity | IC50 [4]: 29.4 µM | IC50 [5]: 46.9 µM | IC50 [6]: 45.9 µM | IC50 [7]: 38.4 µM | IC50 [8]: 41.5 µM | IC50 [9]: 39.9 µM | IC50 [10]: 29.7 µM | IC50 [11]: 40.3 µM | IC50 [12]: 36.6 µM | IC50 [13]: 30.8 µM | IC50 ([14]; Homo sapiens): 33.1 µM | Bottom plateaus of the concentration-effect curves ([15]; 3D clonogenic assay, responding tumor models): 0% | IC50 ([15]; read-out: mean relative IC50 value): 33.5 µM | IC50 ([15]; 3D clonogenic assay, colony formation, read-out: IC50 values, range over all bladder cancer cell lines tested): 29.6 to 40.1 µM | IC50 ([15]; 3D clonogenic assay, five cell lines, read-out: Geometric Mean Absolute IC50 values): 33.9 µM | IC50 [16]: 27.1 µM | IC50 [17]: 59.8 µM | IC50 [18]: 0.41 ± 0.01 µM

N.N.[Cl][Pt][Cl] [Cisplatin, cisplatin]
IC50 [14]: 53 µM
